Measured values taken from publication PMC8515607 (ACS Omega, 2021).
Like-named read-outs stand apart in the source and are kept apart here.

Experiments:
[1] = tested on: A549, MCF-7, and LoVo cells; assay: Antiproliferative activity, values quoted jointly for three tumor lines; assay type: cell-based, human; conditions: Homo sapiens; summary of Table 1; read-out: IC50 against A549, MCF-7, and LoVo cells (span over the three lines)
Description: (§1) The A549 and MCF7 cell lines were purchased from the European Collection of Authenticated Cell Cultures (ECACC, Salisbury, U.K., 86012804 and 86012803). The LoVo cell line was purchased from the American Type Culture Collection (CCL-229, ATCC, Manassas, VA), and LoVo/DX by courtesy of Prof. E. Borowski (Technical University of Gdańsk, Gdańsk, Poland). The BALB/3T3 cell line was purchased from the American Type Culture Collection (CCL-163, ATCC, Manassas, VA). All of the cell lines are maintained in the Institute of Immunology and Experimental Therapy (IIET), Wroclaw, Poland.
(§2) A549 cells were cultured in a mixture of OptiMEM and Roswell Park Memorial Institute (RPMI) 1640 (1:1) medium (IIET, Wroclaw, Poland), supplemented with 10% fetal bovine serum HyClone (GE Healthcare) and 2 mM L-glutamine (Sigma-Aldrich, Germany). MCF7 cells were cultured in a mixture of Eagle’s medium (IIET, Wroclaw, Poland), supplemented with 10% fetal bovine serum, 2 mM L-glutamine, and insulin (Sigma-Aldrich, Germany). LoVo and LoVo/DX cells were cultured in F12K medium (Corning), supplemented with 10% fetal bovine serum HyClone (GE Healthcare) and 0.1 μg/mL doxorubicin (Accord) for LoVo/DX. BALB/3T3 fibroblasts were cultured in Dulbecco’s medium (Gibco), supplemented with 10% fetal bovine serum (GE Healthcare) and 2 mM L-glutamine (Sigma-Aldrich, Germany). All culture media contained antibiotics: 100 U/mL penicillin (Polfa-Tarchomin, Poland) and 0.1 mg/mL streptomycin (Sigma-Aldrich, Germany). All cell lines were cultured during entire experiment in humid atmosphere at 37 °C and 5% CO2.
(§3) All cell lines were exposed to each tested agent at different concentrations in the range 100–0.00001 μg/mL for 72 h. The cells were also exposed to the reference drug cisplatin (Teva Pharmaceuticals, Poland) and doxorubicin (Accord Healthcare Limited, U.K.). Additionally, all cell lines were exposed to dimethyl sulfoxide (DMSO) (solvent used for tested compounds) (POCh, Poland) at concentrations corresponding to those present in tested agents dilutions. After 72 h, sulforhodamine B (SRB) assay was performed.[57]
(§4) After 72 h of incubation with the tested compounds, the cells were fixed in situ by gently adding cold 50% trichloroacetic acid (TCA) (POCh, Poland) and were incubated at room temperature for 1 h. Then, the wells were washed four times with water and air-dried. Next, 0.1% solution of sulforhodamine B (Sigma-Aldrich, Germany) in 1% acetic acid (POCh, Poland) was added to each well and the plates were incubated at room temperature for 0.5 h. After incubation time, unbound dye was removed by washing plates four times with 1% acetic acid, whereas stain bound to cells was solubilized with 10 mM Tris base (Sigma-Aldrich, Germany). Absorbance of each solution was read at Synergy H4 Hybrid Multi-Mode Microplate Reader (BioTek Instruments) at the 540 nm wavelength.
(§5) IC50 values were calculated in Excel sheet using formulas adapted by Mateusz Psurski fromCheburator 0.4, Dmitry Nevozhay software (version 1.2.0 software by Dmitry Nevozhay, 2004–2014, http://www.cheburator.nevozhay.com, freely available) for each experiment.[58] Compounds at each concentration were tested in triplicate in a single experiment, and each experiment was repeated at least three times independently.

LoVo = assay: cells; assay type: cell-based, human; conditions: for IC50: Homo sapiens, LoVo, 72 h, read-out: LoVo IC50 (nM); for LoVo SI: selectivity index = IC50 BALB/3T3 / IC50 LoVo
Description: as §1, §2, §3, §4, §5

A549 = assay: cells; assay type: cell-based, human; conditions: for IC50: Homo sapiens, A549, 72 h, read-out: A549 IC50 (nM), 72 h exposure, SRB, mean ± SD; for A549 SI: selectivity index = IC50 BALB/3T3 / IC50 A549
Description: as §1, §2, §3, §4, §5

MCF-7 = assay: cells; assay type: cell-based, human; conditions: for IC50: Homo sapiens, MCF7, 72 h, read-out: MCF-7 IC50 (nM); for MCF-7 SI: selectivity index = IC50 BALB/3T3 / IC50 MCF-7
Description: as §1, §2, §3, §4, §5

LoVo/DX = assay: cells; assay type: cell-based, human; conditions: for LoVo/DX RI: resistance index = IC50 LoVo/DX / IC50 LoVo; for LoVo/DX SI: selectivity index = IC50 BALB/3T3 / IC50 LoVo/DX
Description: as §1, §2, §3, §4, §5

BALB/3T3 = assay: In vitro antiproliferative activity, SRB assay, normal fibroblasts BALB/3T3; assay type: cell-based; conditions: Mus musculus, BALB/3T3, normal murine embryonic fibroblasts, 72 h, mean ± SD
Description: as §1, §2, §3, §4, §5

[2] = Homo sapiens, LoVo/DX, 72 h, read-out: LoVo/DX IC50 (nM), 72 h exposure, SRB, mean ± SD
[3] = read-out: LoVo/DX IC50, 72 h exposure, SRB, mean ± SD

Compound	IC50 [1] [nM]	IC50 (LoVo) [nM]	LoVo SI (LoVo)	IC50 (A549) [nM]	A549 SI (A549)	IC50 (MCF-7) [nM]	MCF-7 SI (MCF-7)	IC50 (LoVo/DX; [2]) [nM]	IC50 (LoVo/DX; [3]) [nM]	LoVo/DX RI (LoVo/DX)	LoVo/DX SI (LoVo/DX)	IC50 (BALB/3T3) [nM]
CCCCc1cn([C@H]2CCc3cc(OC)c(OC)c(OC)c3-c3ccc(NC)c(=O)cc32)nn1 [Compound 7]	3.1 to 6.4	3.1 ± 1.3	3.2	6.4 ± 3.9	1.5	5.4 ± 3.7	1.8	< 30	23 ± 11	7.4	0.4	9.9 ± 3.7
CNc1ccc2c(cc1=O)[C@@H](n1ccnn1)CCc1cc(OC)c(OC)c(OC)c1-2 [Compound 5]	3.1 to 6.4	5.6 ± 0.6	2.0	6.1 ± 1.1	1.8	5.6 ± 1	2.0	55 ± 20		9.8	0.2	11 ± 2.2
CCOC(=O)c1nnn([C@H]2CCc3cc(OC)c(OC)c(OC)c3-c3ccc(NC)c(=O)cc32)c1C(=O)OCC [Compound 22]	70 to 100	97 ± 24	1.1	72 ± 27	1.5	93 ± 43	1.2	580 ± 120		6.0	0.2	
CNc1ccc2c(cc1=O)[C@@H](n1cc(-c3ccc(Cl)cc3)nn1)CCc1cc(OC)c(OC)c(OC)c1-2 [Compound 15]		47 ± 22	2.0	39 ± 2.7	2.4	35 ± 14	2.6	150 ± 35		3.2	0.6	92 ± 20
CCCCCCCCCCCCCCCC(=O)NCc1cn([C@H]2CCc3cc(OC)c(OC)c(OC)c3-c3ccc(NC)c(=O)cc32)nn1 [Compound 30]		300 ± 94	1.0	16 ± 7.3	18.1	9.3 ± 2.4	31.2	7300 ± 1100		24	<0.1	290 ± 49
CNc1ccc2c(cc1=O)[C@@H](n1cc(CNC(=O)OC(C)(C)C)nn1)CCc1cc(OC)c(OC)c(OC)c1-2 [Compound 41]		5.1 ± 0.3	2.2	5.4 ± 1.5	2.0	3.2 ± 0.6	3.4	570 ± 120		110	<0.1	11 ± 0.8
CCCCCCCCCCCCCCCC(=O)OCc1cn([C@H]2CCc3cc(OC)c(OC)c(OC)c3-c3ccc(NC)c(=O)cc32)nn1 [Compound 24]		19 ± 7	2.8	16 ± 5.2	3.4	11 ± 0.7	4.9	3300 ± 280		170	<0.1	54 ± 20
CNc1ccc2c(cc1=O)[C@@H](n1cc(COC(=O)c3ccccc3Cl)nn1)CCc1cc(OC)c(OC)c(OC)c1-2 [Compound 27]		4.7 ± 1.7	1.9	2.9 ± 0.6	3.0	2.4 ± 0.8	3.6	< 100	89 ± 18	19	0.1	8.7 ± 2
CNc1ccc2c(cc1=O)[C@@H](n1nnc(C(=O)O)c1C(=O)O)CCc1cc(OC)c(OC)c(OC)c1-2 [Compound 23]		860 ± 190	1.4	1000 ± 240	1.2	990 ± 82	1.2	2900 ± 390		3.4	0.4	1200 ± 14
CNc1ccc2c(cc1=O)[C@@H](n1cc(COC(=O)c3ccncc3)nn1)CCc1cc(OC)c(OC)c(OC)c1-2 [Compound 28]		7.9 ± 3.3	1.5	9.5 ± 2.9	1.3	3.9 ± 1.1	3.1	1000 ± 94		130	<0.1	12 ± 1.1
CCCc1cn([C@H]2CCc3cc(OC)c(OC)c(OC)c3-c3ccc(NC)c(=O)cc32)nn1 [Compound 6]		13 ± 1.9	1.8	15 ± 3.7	1.6	11 ± 1.2	2.2	85 ± 21		6.5	0.3	24 ± 9.3
CNc1ccc2c(cc1=O)[C@@H](n1cc(CCO)nn1)CCc1cc(OC)c(OC)c(OC)c1-2 [Compound 11]		14 ± 6.5	1.3	14 ± 2	1.3	13 ± 1.6	1.4	1700 ± 290		120	<0.1	18 ± 7.1
CNc1ccc2c(cc1=O)[C@@H](n1cc(C(C)(C)O)nn1)CCc1cc(OC)c(OC)c(OC)c1-2 [Compound 12]		19 ± 3.9	2.6	37 ± 4.2	1.4	13 ± 3.4	3.8	2400 ± 550		130	<0.1	50 ± 4.5
CNc1ccc2c(cc1=O)[C@@H](n1cc(-c3ccccc3)nn1)CCc1cc(OC)c(OC)c(OC)c1-2 [Compound 14]		10 ± 0.8	2.0	13 ± 2.6	1.5	10 ± 1.8	2.0	< 30	27 ± 7.6	2.7	0.7	20 ± 7.6
CNc1ccc2c(cc1=O)[C@@H](n1cc(CNC(=O)OC)nn1)CCc1cc(OC)c(OC)c(OC)c1-2 [Compound 37]		8.5 ± 2.3	1.6	7.2 ± 0.7	1.9	4.7 ± 0.5	3.0	1500 ± 240		180	<0.1	14 ± 2.4
CNc1ccc2c(cc1=O)[C@@H](n1cc(CNC(=O)CCNC(=O)OC(C)(C)C)nn1)CCc1cc(OC)c(OC)c(OC)c1-2 [Compound 34]		33 ± 10	8.2	26 ± 11	10.4	10 ± 2.1	27.0	17000 ± 1600		510	<0.1	270 ± 67
CNc1ccc2c(cc1=O)[C@@H](n1cc(COCc3ccccc3)nn1)CCc1cc(OC)c(OC)c(OC)c1-2 [Compound 17]		5.7 ± 4.9	1.9	6.9 ± 5.3	1.6	6.1 ± 4.8	1.8	84 ± 42		15	0.1	11 ± 7.8
